Test results taken from ChEMBL document CHEMBL4507268 (2021).

Columns and labels:
Conditions in all cases: Compound concentration 1000.0 nM
[1] = biological target: Peripheral plasma membrane protein CASK (Homo sapiens) (UniProt O14936)
[2] = biological target: T1, Ephrin type-B receptor 1 (Homo sapiens) (UniProt P54762)
T1 sequence (whole entry): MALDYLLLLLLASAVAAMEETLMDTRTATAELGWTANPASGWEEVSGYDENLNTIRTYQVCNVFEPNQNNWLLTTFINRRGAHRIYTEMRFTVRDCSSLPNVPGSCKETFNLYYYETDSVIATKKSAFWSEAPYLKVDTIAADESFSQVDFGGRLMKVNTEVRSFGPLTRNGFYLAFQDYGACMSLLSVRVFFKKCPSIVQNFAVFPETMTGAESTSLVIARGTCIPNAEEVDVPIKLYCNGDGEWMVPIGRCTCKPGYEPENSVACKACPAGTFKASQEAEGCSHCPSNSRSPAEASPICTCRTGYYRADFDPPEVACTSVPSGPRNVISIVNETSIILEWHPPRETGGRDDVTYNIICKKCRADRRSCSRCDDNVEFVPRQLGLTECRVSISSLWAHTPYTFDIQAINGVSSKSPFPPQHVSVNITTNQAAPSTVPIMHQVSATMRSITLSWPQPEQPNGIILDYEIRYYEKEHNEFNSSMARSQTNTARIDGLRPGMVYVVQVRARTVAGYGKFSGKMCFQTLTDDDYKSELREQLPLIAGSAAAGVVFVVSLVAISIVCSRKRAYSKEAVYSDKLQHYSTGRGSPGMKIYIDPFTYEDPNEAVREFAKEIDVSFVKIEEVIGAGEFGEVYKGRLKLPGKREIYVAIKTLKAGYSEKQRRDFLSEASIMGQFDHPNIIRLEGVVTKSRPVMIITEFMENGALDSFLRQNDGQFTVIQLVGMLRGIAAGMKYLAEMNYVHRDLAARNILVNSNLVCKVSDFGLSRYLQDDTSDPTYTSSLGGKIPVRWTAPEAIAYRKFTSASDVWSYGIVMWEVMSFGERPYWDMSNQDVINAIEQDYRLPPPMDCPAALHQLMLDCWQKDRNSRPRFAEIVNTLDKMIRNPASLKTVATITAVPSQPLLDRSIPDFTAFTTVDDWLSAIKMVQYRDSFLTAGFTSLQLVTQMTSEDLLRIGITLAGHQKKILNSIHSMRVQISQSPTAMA

[3] = biological target: Serine/threonine-protein kinase NIM1 (Homo sapiens) (UniProt Q8IY84)
[4] = biological target: 1-phosphatidylinositol 3-phosphate 5-kinase (Homo sapiens) (UniProt Q9Y2I7)
[5] = biological target: T2, Protein kinase C epsilon type (Homo sapiens) (UniProt Q02156)
T2 sequence (whole entry): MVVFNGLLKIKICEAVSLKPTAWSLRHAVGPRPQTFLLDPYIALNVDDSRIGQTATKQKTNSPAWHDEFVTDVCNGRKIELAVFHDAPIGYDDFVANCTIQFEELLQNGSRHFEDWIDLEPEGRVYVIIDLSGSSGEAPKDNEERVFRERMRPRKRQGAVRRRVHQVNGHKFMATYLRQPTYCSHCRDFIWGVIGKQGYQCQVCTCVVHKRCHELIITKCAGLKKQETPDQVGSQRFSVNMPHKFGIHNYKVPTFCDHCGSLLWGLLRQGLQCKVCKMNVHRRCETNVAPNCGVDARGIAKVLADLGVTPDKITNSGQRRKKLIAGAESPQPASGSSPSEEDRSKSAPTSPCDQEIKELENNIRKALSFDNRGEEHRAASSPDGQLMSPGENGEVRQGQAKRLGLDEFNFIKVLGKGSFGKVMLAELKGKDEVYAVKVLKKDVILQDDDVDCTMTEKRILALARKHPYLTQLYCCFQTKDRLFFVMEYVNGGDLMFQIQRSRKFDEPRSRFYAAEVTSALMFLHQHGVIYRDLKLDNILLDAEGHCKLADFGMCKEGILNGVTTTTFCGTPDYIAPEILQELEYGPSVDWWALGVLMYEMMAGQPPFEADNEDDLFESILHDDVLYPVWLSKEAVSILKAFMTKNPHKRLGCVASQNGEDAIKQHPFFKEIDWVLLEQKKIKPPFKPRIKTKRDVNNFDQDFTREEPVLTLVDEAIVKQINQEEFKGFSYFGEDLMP

Measured: residual activity

Sequence of Serine/threonine-protein kinase NIM1 (Homo sapiens) (Q8IY84 whole entry): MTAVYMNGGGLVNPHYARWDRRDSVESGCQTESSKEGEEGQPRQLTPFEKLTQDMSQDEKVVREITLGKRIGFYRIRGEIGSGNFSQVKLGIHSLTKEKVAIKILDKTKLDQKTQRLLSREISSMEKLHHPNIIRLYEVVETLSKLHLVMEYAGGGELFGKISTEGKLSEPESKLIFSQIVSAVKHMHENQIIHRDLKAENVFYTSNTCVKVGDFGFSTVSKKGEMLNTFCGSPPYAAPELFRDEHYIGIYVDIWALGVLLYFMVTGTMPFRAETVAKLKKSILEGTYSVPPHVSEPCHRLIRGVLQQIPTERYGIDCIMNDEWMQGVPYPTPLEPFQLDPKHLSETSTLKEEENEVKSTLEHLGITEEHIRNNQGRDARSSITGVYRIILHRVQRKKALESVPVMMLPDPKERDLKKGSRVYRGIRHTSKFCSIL
Sequence of Peripheral plasma membrane protein CASK (Homo sapiens) (O14936 whole entry): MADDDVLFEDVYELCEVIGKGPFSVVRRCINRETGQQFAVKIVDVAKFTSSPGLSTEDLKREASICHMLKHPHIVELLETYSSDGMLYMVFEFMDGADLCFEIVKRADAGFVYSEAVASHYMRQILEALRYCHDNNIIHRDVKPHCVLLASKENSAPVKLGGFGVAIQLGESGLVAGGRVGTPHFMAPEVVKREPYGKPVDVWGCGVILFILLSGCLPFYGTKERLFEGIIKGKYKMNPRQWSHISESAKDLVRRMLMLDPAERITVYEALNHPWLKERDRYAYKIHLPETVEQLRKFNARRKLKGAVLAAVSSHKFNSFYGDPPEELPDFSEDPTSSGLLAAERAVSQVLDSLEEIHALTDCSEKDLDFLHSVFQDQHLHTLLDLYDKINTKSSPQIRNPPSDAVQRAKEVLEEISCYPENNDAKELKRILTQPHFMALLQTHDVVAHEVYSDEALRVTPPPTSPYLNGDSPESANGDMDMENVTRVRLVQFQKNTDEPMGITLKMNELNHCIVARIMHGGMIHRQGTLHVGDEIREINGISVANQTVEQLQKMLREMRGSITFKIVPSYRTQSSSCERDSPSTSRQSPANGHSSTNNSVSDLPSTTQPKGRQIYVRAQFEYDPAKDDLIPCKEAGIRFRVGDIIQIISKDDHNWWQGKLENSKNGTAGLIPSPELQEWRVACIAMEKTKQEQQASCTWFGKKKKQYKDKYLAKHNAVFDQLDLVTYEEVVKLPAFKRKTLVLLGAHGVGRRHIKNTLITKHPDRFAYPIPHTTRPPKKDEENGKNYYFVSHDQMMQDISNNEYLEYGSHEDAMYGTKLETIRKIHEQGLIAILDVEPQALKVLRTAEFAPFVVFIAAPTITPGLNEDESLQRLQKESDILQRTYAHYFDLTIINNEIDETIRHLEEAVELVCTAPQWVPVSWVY
Sequence of 1-phosphatidylinositol 3-phosphate 5-kinase (Homo sapiens) (Q9Y2I7 whole entry): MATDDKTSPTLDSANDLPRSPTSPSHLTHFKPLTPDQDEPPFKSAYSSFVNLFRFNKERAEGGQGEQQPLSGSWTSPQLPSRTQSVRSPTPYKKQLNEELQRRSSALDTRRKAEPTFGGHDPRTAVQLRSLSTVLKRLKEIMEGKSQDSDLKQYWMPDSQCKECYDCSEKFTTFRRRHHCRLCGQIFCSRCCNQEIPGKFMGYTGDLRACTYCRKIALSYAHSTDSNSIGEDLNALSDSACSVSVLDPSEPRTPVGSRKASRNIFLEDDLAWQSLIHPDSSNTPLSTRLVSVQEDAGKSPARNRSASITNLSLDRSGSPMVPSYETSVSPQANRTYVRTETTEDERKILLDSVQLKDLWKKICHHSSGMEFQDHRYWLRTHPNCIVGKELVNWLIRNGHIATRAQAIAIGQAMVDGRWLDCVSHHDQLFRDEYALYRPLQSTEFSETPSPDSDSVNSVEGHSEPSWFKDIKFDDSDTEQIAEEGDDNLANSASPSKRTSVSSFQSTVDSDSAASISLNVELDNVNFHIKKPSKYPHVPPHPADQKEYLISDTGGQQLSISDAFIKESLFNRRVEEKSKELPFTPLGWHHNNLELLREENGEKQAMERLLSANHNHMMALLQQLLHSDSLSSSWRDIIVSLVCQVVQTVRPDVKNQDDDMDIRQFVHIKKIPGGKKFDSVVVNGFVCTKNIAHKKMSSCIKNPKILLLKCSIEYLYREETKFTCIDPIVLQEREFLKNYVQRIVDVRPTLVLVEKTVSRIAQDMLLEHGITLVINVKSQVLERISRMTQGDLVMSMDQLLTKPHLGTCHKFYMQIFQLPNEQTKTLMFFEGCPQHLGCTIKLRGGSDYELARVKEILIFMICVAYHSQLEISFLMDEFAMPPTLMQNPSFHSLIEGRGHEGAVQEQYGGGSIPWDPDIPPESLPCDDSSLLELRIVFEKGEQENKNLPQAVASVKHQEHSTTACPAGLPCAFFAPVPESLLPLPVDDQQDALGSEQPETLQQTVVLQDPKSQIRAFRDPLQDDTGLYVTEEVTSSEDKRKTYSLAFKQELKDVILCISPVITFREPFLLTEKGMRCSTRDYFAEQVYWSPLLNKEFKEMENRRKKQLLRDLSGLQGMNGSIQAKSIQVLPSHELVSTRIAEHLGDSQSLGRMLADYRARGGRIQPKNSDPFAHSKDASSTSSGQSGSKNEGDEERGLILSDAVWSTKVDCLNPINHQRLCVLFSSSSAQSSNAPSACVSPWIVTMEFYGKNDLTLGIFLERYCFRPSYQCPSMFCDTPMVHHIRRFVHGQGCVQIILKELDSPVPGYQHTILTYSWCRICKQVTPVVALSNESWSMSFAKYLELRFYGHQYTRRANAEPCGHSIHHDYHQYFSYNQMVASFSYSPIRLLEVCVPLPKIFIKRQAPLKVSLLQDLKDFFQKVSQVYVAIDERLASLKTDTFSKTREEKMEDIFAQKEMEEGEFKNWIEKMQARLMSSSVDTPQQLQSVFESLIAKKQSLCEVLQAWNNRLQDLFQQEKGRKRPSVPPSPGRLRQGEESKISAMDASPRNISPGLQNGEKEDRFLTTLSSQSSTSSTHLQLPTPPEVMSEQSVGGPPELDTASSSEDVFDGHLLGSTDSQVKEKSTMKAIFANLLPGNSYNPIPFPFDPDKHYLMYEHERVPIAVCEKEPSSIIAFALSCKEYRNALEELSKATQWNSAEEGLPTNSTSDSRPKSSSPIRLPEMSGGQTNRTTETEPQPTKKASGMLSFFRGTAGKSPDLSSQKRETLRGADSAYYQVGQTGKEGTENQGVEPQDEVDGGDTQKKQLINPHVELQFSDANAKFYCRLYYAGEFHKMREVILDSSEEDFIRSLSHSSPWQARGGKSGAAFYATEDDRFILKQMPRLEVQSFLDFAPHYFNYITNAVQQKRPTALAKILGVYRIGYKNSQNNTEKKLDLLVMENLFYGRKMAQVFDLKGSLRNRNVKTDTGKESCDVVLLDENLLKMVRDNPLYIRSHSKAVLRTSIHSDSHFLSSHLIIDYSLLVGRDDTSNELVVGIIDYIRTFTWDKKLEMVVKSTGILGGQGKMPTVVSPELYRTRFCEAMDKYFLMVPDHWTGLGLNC

Cc1nc(C2CCN(C(=O)c3ccc(OC(F)(F)F)cc3N)CC2)c2ncc(N3CCN(C)CC3)cc2n1 [BAY-693]
inactive: [1] 87% | [2] 95% | [3] 89% | [4] 100% | [5] 100%

CN1CCN(c2cnc3c(C4CCN(C(=O)c5ccc(OC(F)(F)F)cc5N)CC4)ncnc3c2)CC1 [BAY-885]
inactive: [1] 89% | [2] 100% | [3] 100% | [4] 98% | [5] 100%
